Consider ten compounds from patent US9352010B2, “Treatment of HIV-1 infection and AIDS” (The J. David Gladstone Institutes, priority 2011, dated 2016).

For experiment [1], the system named is CFSE-labeled CD4 T-cells. The experiment is classed as cell-based, human. The note with it: for indirect killing (loss) of resting CFSE-labeled CD4 T-cells: NL4-3-infected effector cells. As to the method:
(A) Experimental strategy to assess indirect cell killing in HIV-1-infected human lymphoid cultures. Fresh human tonsil tissue from a single donor is processed into HLAC, and then separated into two fractions. One fraction is challenged with HIV-1 and cultured for 6 days, allowing viral spread. On day 5, the uninfected fraction is treated with AZT (5 μM) and labeled with CFSE (1 μM). On day 6, the infected and CFSE-labeled (i.e., uninfected) cultures are mixed and co-cultured in the presence of AZT. […] After 6 days of co-culturing, the number of viable CFSE-positive cells is determined by flow cytometry. (B) Flow cytometry analysis of the mixed HLACs. Indirect killing is determined by gating on live CFSE-positive cells in the mixed cultures. Effector cells are either infected or uninfected cells. […] CFSE-labeled cells mixed with uninfected or infected cells were cultured in the presence of 5 μM AZT alone or together with 250 nM AMD3100. Data represent live CFSE-positive cells 6 days after co-culture with infected or uninfected effector cells. […] The absolute numbers of viable CFSE-positive CD4 and CD8 T-cells and B cells were determined. Percentages are normalized to the number of viable CFSE-positive cells co-cultured with uninfected cells in the presence of AZT, as depicted by (*). Error bars represent standard deviations of three samples from the same donor. […] See also FIG. 3.
(§1) Human tonsil or splenic tissues from routine tonsillectomies were obtained from the National Disease Research Interchange and the Cooperative Human Tissue Network and processed as previously described (Jekle et al., 2003, J Virol 77:5846-5854). In brief, tonsils or spleen were minced, passed through a 40-μm cell strainer, and cultured in 96-well U-bottomed polystyrene plates (2×10^6 cells/well) in medium (200 μl/well) consisting of RPMI 1640 supplemented with 15% heat-inactivated fetal bovine serum, 100 μg/ml gentamicin, 200 μg/ml ampicillin, 1 mM sodium pyruvate, 1% nonessential amino acids (Mediatech), 2 mM L-glutamine, and 1% fungizone (Invitrogen). All HIV-1 infections were carried out with 20-50 ng of HIV-1 p24^gag. Cells were incubated with the virus for 12-16 h, washed extensively, and supplemented with fresh medium. After day 5, infections were monitored by measuring p24gag levels in the culture medium using a FLAQ assay (Hayden et al., 2003, AIDS 17:629-631). Infected and uninfected cultures were manipulated as described for individual experiments. In “indirect killing” assays, unless otherwise stated, drugs were used at the following concentrations: 5 μM AZT; 250 nM AMD3100; 10 μg/ml T20; 100 nM Efavirenz; 1 μM Nevirapine; 30 μM Raltegravir; 60 μM 118-D-24; 5 μM Amprenavir; 5 μM Saquinavir; 5 μM Indinavir. CFSE-labeled cells were activated with PHA (5 μg/ml) and IL-2 (20 ng/ml) 2 days before mixing with effector cells.
Uninfected cells (5×10^6/ml) were labeled with 1 μM CFSE (Molecular Probes C1157), treated with 5 μM AZT for 24 h, and co-cultured with effector cells. CFSE readily diffuses into cells, where intracellular esterases cleave the acetate groups, converting it to a fluorescent, membrane-impermeable dye.

For experiment [2], the system named is SupT1 CD4 T leukemic cells. Kind of experiment: Syncytia formation in NL4-3-infected SupT1 cells. The experiment is classed as cell-based. The note with it: 5 μM protease inhibitor, 2.5 days. As to the method:
(A) The spinoculation procedure. (B) Flow cytometry of viable CD4 versus CD8-T-cells in HLAC three days after spinoculation in the presence of the indicated drugs. Data represent live-gated cells, based on the forward-scatter versus side-scatter profile of the complete culture. Of note, apoptotic cells were included in the analysis of caspases activity and cytokine expression (FIG. 10E, F). Drugs concentrations: AZT 5 μM; Efavirenz 100 nM; AMD3100 250 nM; T20 10 μg/ml. The data are representative results of six independent experiments with six different donors. […] (C) Highly permissive SupT1 CD4 T leukemic cells were infected with NL4-3 and cultivated for 3 days to allow substantial infection but not syncytia formation. […] After 2.5 days of additional culture, the extent of syncytia formation in each sample was evaluated by light microscopy. […] Results are representative of three independent experiments.

Experiment [3] relates to IL-1β. Kind of experiment: Release of 17-kDa IL-1β from isolated tonsillar CD4 T-cells (ionophore stimulus). The settings on record: nigericin 10 μM. Format: cell-based, human. As for the experimental part: For stimulating the processing and secretion of IL-1, CD4 T-cells were isolated from HLACs by positive selection and treated with 0.5 μM PMA ([…], Calbiochem Cat. #524400) for 6 hours at 37° C. PMA induces large intracellular stores of the 35 kDa pro-IL-1β. Cells were then washed with PBS and treated with 10 μM nigericin (Sigma, Cat. # N7143) overnight at 37° C. The potassium ionophore nigericin mediates an elecroneutral exchange of intracellular K^+ ions for extracellular protons, providing a second inflammatory stimulus, which results in the maturation and release of the bioactive 17 kDa IL-1β(Perregaux et al., 1992, J Immunol 149:1294-1303; Perregaux and Gabel, 1994, J Biol Chem 269:15195-15203).
Isolated tonsillar CD4 T-cells were treated overnight with nigericin (10 μM) to provide a second inflammatory stimulus, resulting in maturation and release of bioactive 17-kDa IL-1β. Supernatants from the cell cultures were subjected to SDS-PAGE and immunoblotting. 17-kDa IL-1β was released after treatment with nigericin, but not with calcium ionophore A23187 or the nonspecific cation ionophore monensin. Thus, while these cells are primed, they must receive the appropriate proinflammatory signal for pro-IL-1β processing and release. […]

Experiment [4] concerns human monocytes. The settings on record: LPS and ATP; cited from earlier work.
The subject of experiment [5] is CFSE-labeled spleen CD4 T-cells. Kind of experiment: Indirect killing assay with CFSE-labeled human spleen cells. Format: cell-based. The note with it: HIV-infected spleen HLAC effectors. As to the method: (B and C) Fresh human spleen from a single donor were processed into HLAC and assessed in indirect cell killing assay as described in FIG. 2A. Effector spleen HLAC were stimulated with PHA and IL-2 48 hours before mixing, but not during co-culturing with CFSE-labeled cells. Non-activated resting CFSE-labeled spleen cells were co-cultured with NL4-3-infected or uninfected effector cells in the presence or absence of the following drugs, AZT (5 μM), AMD3100 (250 nM), Efavirenz (100 nM), or Raltegravir (30 μM), as indicated. […] Percentages were normalized to the number of viable CFSE-positive spleen CD4 T-cells co-cultured with uninfected effectors in the presence of AZT, as depicted by (*). Error bars represent standard error of the mean for three experiments performed with three different spleen and tonsil donors.
as §1
Uninfected cells (5×10^6/ml) were labeled with 1 μM CFSE (Molecular Probes C1157), treated with 5 μM AZT for 24 h, and co-cultured with effector cells. CFSE readily diffuses into cells, where intracellular esterases cleave the acetate groups, converting it to a fluorescent, membrane-impermeable dye. […] To quantify indirect killing, mixed (CFSE-labeled+effector) cultures were washed in FACS buffer (PBS supplemented with 2 mM EDTA and 2% fetal bovine serum), stained with PE-conjugated anti-CD4, PerCP-conjugated anti-CD19, and APC-conjugated anti-CD8 (all from BD Pharmingen) and fixed in 1% paraformaldehyde. To determine the absolute numbers of the viable CFSE-labeled cells, a standard number of fluorescent beads (Flow-Count Fluorospheres, Beckman Coulter) was added to each cell-suspension sample before data acquisition. Data were collected on a FACS Calibur (BD Biosciences) and analyzed with Flowjo software (Treestar). The level of indirect killing was defined by sequential gating beginning with forward scatter versus side scatter to select live lymphocytes, subgating on the CFSE-positive population, and calculating the numbers of CD4 or CD8 T or B cells, divided by the number of fluorescent beads acquired.

Experiment [6] relates to HIV-1 reverse transcription products. Kind of experiment: Taqman QPCR of HIV-1 reverse transcription products in infected CD4 T-cells. Format: cell-based, human. The note with it: 16 hours after infection with NL4-3, versus untreated cells. As to the method:
Fresh HLACs were washed once with PBS and resuspended with PBS containing 5 mM EDTA and 2% fetal bovine serum. CD4 T-cells were isolated from HLACs by positive selection on CD4 microbeads (Miltenyi) and cultured overnight in 96-well U-bottomed plates (1×10^6 cells/well) as described above, and AZT was added to the indicated cell samples. Next day, the rest of the drugs were added to the indicated cell samples at concentrations as described above. Cells were chilled on ice for 15 min and DNAse-treated (Ambion, 60 U/ml, 1 hour, 37° C.) NL4-3 or Δvif NL4-3 virions (200 ng/well) were added. After a 1 hour incubation with virions on ice, cells were spinoculated at 1200 g for 2 hours at 4° C., incubated at 37° C. for 2 hours, washed three times with cold PBS, and resuspended in fresh RPMI with the indicated drugs. Eight or 16 hours after spinoculation, cell pellets were frozen at −80° C. Total DNA was purified from each cell pellet with a DNAse kit (Qiagen). Primer and probe sequences used to detect reverse transcription products are provided herein. QPCR reactions were performed in triplicates in TaqMan universal PCR master mix using each primer at 3.75 μM and probe at 2.5 μM. After 15 minutes at 95° C., reactions underwent 50 cycles of 15 sec at 95° C. followed by 1 min at 60° C. in an ABI Prism 7900HT (Applied Biosystems).
Next the status of HIV-1 reverse transcription in tonsillar CD4 T-cells after infection was examined. […] Taqman-based quantitative real-time PCR (QPCR) was used to quantify the synthesis of reverse transcription products in isolated CD4 T-cells from HLAC 16 hours after infection with NL4-3. Specific QPCR primers and probes were designed (Table 1) to monitor sequential steps in reverse transcription including generation of strong-stop DNA, first template exchange (Nef), and DNA strand elongation (Env) (FIG. 10A)
Background: Real-time PCR tracks product formation cycle by cycle.

Experiment [7] concerns ISRE-GFP H35 cells. Kind of experiment: ISRE-GFP H35 reporter cells. The note with it: 1 μg transfected. Format: cell-based, rat. As for the experimental part:
Hepatocyte-derived reporter ISRE-GFP H35 cells were maintained as previously described (King et al., 2007, Lab Chip 7:77-85; Patel et al., 2009, Proc Natl Acad Sci USA 106:12867-12872). For microscopic imaging, ISRE-GFP reporter H35 cells were cultured on 35 mm glass bottom culture dishes (MatTeck) and were treated with AZT (5 μM), Efavirenz (100 nM), or Raltegravir (30 μM) 12 hours before infection. Cells were then infected with 2 μg/ml of replication competent VSV-G pseudotyped NL4-3. After 48 hours incubation at 37° C., cells were fixed in 2% paraformaldehyde at 25° C. for 1 hour, washed with PBS and stained with 10 μg/ml Hoechst 33342 (Invitrogen) and 1 μg/ml 7-AAD (eBioscience) for 15 min at 25° C. Cells were washed 3 times with PBS and were analyzed with an Axio observer Z1 microscope (Zeiss) equipped with an EC Plan NEOFLUAR 10×/0.3 PHM27 objective, filter sets 38HE, 45, and 49, and an Axiocam MRM REV 3.

Take `CC(NC(=O)[C@H](Cc1ccccc1)NC(=O)OCc1ccccc1)C(=O)CF` (some centres unmarked) [Z-FA-FMK]: in experiment [1] (20 μM caspase inhibitor, AZT 5 μM), the “death of abortively infected CD4 T-cells with caspase inhibitors” value is “persisted”. `CC(C)(C)NC(=O)[C@@H]1CN(Cc2cccnc2)CCN1C[C@@H](O)C[C@@H](Cc1ccccc1)C(=O)N[C@H]1c2ccccc2C[C@H]1O` [Indinavir]: in experiment [1], the “indirect killing (loss) of resting CFSE-labeled CD4 T-cells” value (“indirect killing (loss)” for short) is recorded as “inhibit indirect killing”. Also, the “syncytia formation / cell-cell fusion” value in experiment [2] is “do not block syncytia formation”. Regarding `COC(=O)C[C@H](NC(=O)[C@H](C)NC(=O)[C@@H](NC(=O)[C@H](Cc1ccc(O)cc1)NC(=O)OCc1ccccc1)C(C)C)C(=O)CF` [Z-YVAD], the “nigericin-induced IL-1β release after pre-treatment with caspase inhibitor” value in experiment [3] is “blocked”. `Cc1ccnc2c1NC(=O)c1cccnc1N2C1CC1` [nevirapine]: the “indirect killing (loss)” value in experiment [1] is “blocked indirect killing of resting CD4 T-cells as efficiently as AMD3100”. As to `CC(C)c1cc(Cl)cc(C(C)C)c1NC(=O)NS(=O)(=O)c1cccc(C(C)(C)O)c1` [CP-424,174], the “post-translational processing and secretion of IL-1β” value in experiment [4] is “inhibited the post-translational processing and secretion of IL-1β”. For `Cc1nnc(C(=O)NC(C)(C)c2nc(C(=O)NCc3ccc(F)cc3)c(O)c(=O)n2C)o1` [raltegravir], the “indirect killing (loss)” value in experiment [1] is on record as “did not prevent abortive infection killing”. The “loss of CFSE-labeled spleen CD4 T-cells” value in experiment [5] was “did not prevent CD4 T-cell killing”. Moreover, the “reverse transcription products corresponding to strong-stop DNA” value in experiment [6] is “similar”. For `CC(C)(C)NC(=O)[C@@H]1C[C@@H]2CCCC[C@@H]2CN1C[C@@H](O)[C@H](Cc1ccccc1)NC(=O)[C@H](CC(N)=O)NC(=O)c1ccc2ccccc2n1` [Saquinavir], the “indirect killing (loss)” value in experiment [1] is “inhibit indirect killing”. In addition, in experiment [2], the “syncytia formation / cell-cell fusion” value is “do not block syncytia formation”. For `Cc1ccc(-c2ccc3c(c2)C=C(C(=O)Nc2ccc(C[N+](C)(C)C4CCOCC4)cc2)CCC3)cc1.[Cl-]` [TAK779], the “indirect killing of CFSE-labeled CD4 T-cells” value in experiment [1] (WEAU 16-8 (R5/X4)-infected effector cells) is listed as “had no effect”. Turning to `CC(C)c1cc(Cl)cc(C(C)C)c1NC(=O)NS(=O)(=O)c1cccc(C(C)O)c1` (centres unmarked) [CP-412,245], in experiment [4], the “post-translational processing and secretion of IL-1β” value is “inhibited the post-translational processing and secretion of IL-1β”.

Take poly(I:C): the “ISRE-GFP reporter activation by transfected nucleic acid” value in experiment [7] was “elicited a comparable ISRE-GFP response”.
